Data on 6 molecules can be found in publication PMC3118119, “Functional characterization of an alkaline exonuclease and single strand annealing protein from the SXT genetic element of Vibrio cholerae” (BMC Molecular Biology, 2011).

Where a name gives a salt, the structure may show the parent alone. Read-outs that look alike come from different tables or passages of the source.

One data set concerns the target SXT-Exo (S066) (Vibrio cholerae, UniProt Q8KQV9). Put plainly: quenched PicoGreen dsDNA exonuclease assay. Format: biochemical.
In data set [1] the target is SXT-Exo alkaline exonuclease (S066) from the SXT genetic element of Vibrio cholerae (SXT integrating conjugative element of Vibrio cholerae) (UniProt Q79S39). In words: SEC; Superdex 200 HR 10/300 GL, 25 mM Tris-HCl pH7.4, 150 mM NaCl, 1 mM EDTA, 5 mM imidazole, 0.4 ml/min, 4°C; column calibrated with protein standards; oligomer size from the apparent molecular weight. (In general: SEC sorts molecules by how far they enter the pores of the column.)

Another data set deals with Q79S39. The description is as above.
Another data set deals with P03697. The description is as above.

Chain of SXT-Exo (S066) (Q8KQV9 1-338 limits assumed): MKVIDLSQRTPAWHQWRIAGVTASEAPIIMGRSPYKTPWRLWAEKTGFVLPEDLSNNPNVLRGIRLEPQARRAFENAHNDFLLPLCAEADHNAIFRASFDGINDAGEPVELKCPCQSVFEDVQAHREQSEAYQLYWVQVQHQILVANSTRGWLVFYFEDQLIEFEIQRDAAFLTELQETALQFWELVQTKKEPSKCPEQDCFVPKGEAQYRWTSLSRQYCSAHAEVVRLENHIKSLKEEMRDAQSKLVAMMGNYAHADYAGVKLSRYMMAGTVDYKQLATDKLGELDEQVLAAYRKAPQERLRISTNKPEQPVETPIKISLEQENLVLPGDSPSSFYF

What is called IC50 is the concentration that gives 50% inhibition. A low value points to greater potency in that assay. On SXT-Exo (S066) (IC50), `O=P(O)(O)O` [sodium phosphate] gave an IC50 of 25 mM.
Molecule `O=S(=O)(O)O` [sodium sulfate] registered an IC50 at SXT-Exo (S066) (IC50) of around 20 mM.
Molecule `O=S(=O)(O)O` [potassium sulfate] returned an IC50 on SXT-Exo (S066) of around 35 mM.
A word on the stoichiometry N: it is the number of molecules, sites or subunits per partner or assembly. Consider “SXT-Exo alkaline exonuclease (S066) from the SXT genetic element of Vibrio cholerae (from UniProt Q79S39 1-215) (enzyme)”, for which the stoichiometry N in data set [1] was found to be 3.

B1: SXT-Exo alkaline exonuclease (S066) from the SXT genetic element of Vibrio cholerae (protein)
chain: MKTLSERLNHALQLTGVTQSELARRIGIKQQSISQICSGKSARSRYTMQIAEALRVNAHWLATGDGEIGLGVGNVEVGPDIKGRIPLINWVQAGDWTEIAEGFAHEDAEEWREVTGKAHEGCFALRVKGDSMENPSGKKSIPEGAVIVVDPELPYSSGSLVVARLDDSKEATFKQLVIDGEQKYLKPLNPQYPAIPINGNCTIIGVVRQAIIDFW
Regarding B1, the “monomers per oligomer from the SEC apparent molecular weight” value in the data set with Q79S39 is recorded as “corresponded to ca. 3.5 SXT-Exo monomers”.

B2: lambda-Exo alkaline exonuclease from bacteriophage lambda (protein)
chain: MTPDIILQRTGIDVRAVEQGDDAWHKLRLGVITASEVHNVIAKPRSGKKWPDMKMSYFHTLLAEVCTGVAPEVNAKALAWGKQYENDARTLFEFTSGVNVTESPIIYRDESMRTACSPDGLCSDGNGLELKCPFTSRDFMKFRLGGFEAIKSAYMAQVQYSMWVTRKNAWYFANYDPRMKREGLHYVVIERDEKYMASFDEIVPEFIEKMDEALAEIGFVFGEQWR
Consider B2, for which, in the data set with P03697, the “monomers per oligomer from the SEC apparent molecular weight” value was “corresponded to 3.35 protein monomers”.
